9 compounds from patent US20250206729A1, “DUAL RAF AND TUBULIN INHIBITORS AND METHODS OF USE THEREOF” (Deciphera Pharmaceuticals, LLC, priority 2023, published 2025) can be followed below.

The target of assay [1] is T1, B-Raf kinase (SEQ ID NO: 1) (Homo sapiens, UniProt P15056).
T1 construct: GST (N); purchased Sigma
Kind of assay: Biochemical assay for B-Raf (coupled pyruvate kinase/lactate dehydrogenase).

The target in assay [2] is T2, C-Raf kinase (SEQ ID NO: 2) (Homo sapiens, UniProt P04049, Y340D/Y341D).
T2 construct: C-Raf residues 306-end; Y340D, Y341D with N-; GST (N); purchased Sigma
Description: Biochemical assay for C-Raf (coupled pyruvate kinase/lactate dehydrogenase).

The test system of assay [3] is MiaPaca-2 cells. Kind of assay: MiaPaca-2 cell proliferation assay. The format is cell-based. To be noted: Homo sapiens, MIA PaCa-2.
In assay [4] the test system is HCT-116 cells. Kind of assay: HCT-116 cell proliferation assay. Format: cell-based. To be noted: Homo sapiens.
The subject of assay [5] is HPAF-II cells. Description: HPAF-II cell proliferation assay. Format: cell-based. Conditions: Homo sapiens.
The test system of assay [6] is Pa16c cells. Kind of assay: Pa16c cell proliferation assay. To be noted: 67 to 72 h incubation, resazurin; read-out: Pa16c (inhibition of cell proliferation, IC50). Format: cell-based. A general note: Resazurin is reduced to fluorescent resorufin, in cell work by metabolically active cells.
Assay [7] has as its system tubulin polymerization in HCT-116 cells. Description: Cellular tubulin polymerization assay (HCT-116 cells). Format: cell-based. The protocol: HCT-116 cells (catalog #CCL-247) are obtained from the American Type Culture Collect (ATCC, Manassas, VA). Briefly, cells are grown in McCoy's 5A supplemented with 10% characterized fetal bovine serum (Invitrogen, Carlsbad, CA) and 1% Penicillin/Streptomycin/L-Glutamine at 37° C., 5% CO2, and 95% humidity. Cells are expanded until reaching 70-95% confluency at which point they are sub-cultured or harvested for assay use. 450000 cells are added per well in 1500 μL complete growth medium in a tissue culture treated, 12-well plate. Plates are incubated for 18 to 24 h at 37° C., 5% CO2, and 95% humidity. At the end of the incubation, 2000 μL of base culture media is added to each well, followed by a serial dilution of compound. Plates are incubated for an additional 1 h at 37° C., 5% CO2, and 95% humidity. Lysates are generated by the addition of 100 μL Lysis and Microtubule Stabilization Buffer 1 (LMSO1, Cytoskeleton Inc, Denver, CO) supplemented with GTP (BST06, Cytoskeleton Inc), ATP (BSA04, Cytoskeleton Inc), and Protease Inhibitor Cocktail Stock (PIC02, Cytoskeleton Inc). Cells are scraped off wells using a rubber cell scraper and collected in a clean 96-well plate. Lysates are centrifuged at 1000× g, 37° C. for 10 min and supernatant fraction is placed into an additional 96-well plate. The remaining pellet fraction is reconstituted in 100 μL LMS01 buffer and sonicated for 10 min. Pellet and Supernatant fractions are probed for α-tubulin via western blot analysis on the Jess System or equivalent (Bio-techne, Minneapolis, MN). Data is analyzed using Prism software (Graphpad, San Diego, CA) to calculate IC50 values.

Assay [8] concerns the target Porcine Brain Tubulin (Sus scrofa, UniProt P02550+P02554). Description: Biochemical tubulin polymerization assay. Conditions: maximum velocity of polymerization, FIG. 1; read-out: IC50 of inhibition of tubulin polymerization, biochemical tubulin assay.
Setting [9] is: 1 mM ATP, read-out: BRAF (inhibition of biochemical activity, IC50).
Where [10] appears, read: 1 mM ATP, read-out: CRAF (inhibition of biochemical activity, IC50).
Setting [11] is: 67-72 h incubation, resazurin, read-out: MiaPaca-2 (inhibition of cell proliferation, IC50).
Where [12] appears, read: Table 3, mutant KRAS pancreatic cancer cell line, anti-proliferative, read-out: MiaPaca-2.
Where [13] appears, read: HCT-116, 67 to 72 h incubation, resazurin, read-out: HCT-116 (inhibition of cell proliferation, IC50).
Where [14] appears, read: Table 3, mutant KRAS colorectal cancer cell line, anti-proliferative, read-out: HCT-116.
Where [15] appears, read: HPAF-II, 115 to 120 h incubation, resazurin, read-out: HPAF-II (inhibition of cell proliferation, IC50).
[16] abbreviates: Table 3, mutant KRAS pancreatic cancer cell line, anti-proliferative, read-out: HPAF-II.
Setting [17] is: Table 3, HCT-116 cells, read-out: Tubulin Cellular.

Read-outs that look alike come from different tables or passages of the source.

T1 sequence (P15056 416-766): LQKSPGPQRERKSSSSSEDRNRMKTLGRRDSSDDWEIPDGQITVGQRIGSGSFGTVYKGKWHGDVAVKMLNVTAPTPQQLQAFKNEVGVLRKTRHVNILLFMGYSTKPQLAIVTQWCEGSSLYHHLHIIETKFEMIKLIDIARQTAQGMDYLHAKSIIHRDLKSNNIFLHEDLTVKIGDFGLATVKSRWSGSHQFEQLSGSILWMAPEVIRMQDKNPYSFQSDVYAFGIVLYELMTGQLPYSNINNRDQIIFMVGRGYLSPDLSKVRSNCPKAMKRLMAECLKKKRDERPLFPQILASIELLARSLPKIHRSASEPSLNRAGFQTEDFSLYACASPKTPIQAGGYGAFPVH
T2 sequence (P04049 307-648 Y340D/Y341D): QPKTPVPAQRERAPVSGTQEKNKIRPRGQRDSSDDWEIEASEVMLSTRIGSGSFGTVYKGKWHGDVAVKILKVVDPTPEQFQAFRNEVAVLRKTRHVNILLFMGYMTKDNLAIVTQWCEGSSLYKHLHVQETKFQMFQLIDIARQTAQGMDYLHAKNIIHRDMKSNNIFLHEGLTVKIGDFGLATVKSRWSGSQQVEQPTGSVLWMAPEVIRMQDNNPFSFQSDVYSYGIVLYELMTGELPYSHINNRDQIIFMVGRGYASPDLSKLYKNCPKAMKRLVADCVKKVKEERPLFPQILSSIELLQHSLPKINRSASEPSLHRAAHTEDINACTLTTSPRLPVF
Chain of Porcine Brain Tubulin (P02554 whole entry): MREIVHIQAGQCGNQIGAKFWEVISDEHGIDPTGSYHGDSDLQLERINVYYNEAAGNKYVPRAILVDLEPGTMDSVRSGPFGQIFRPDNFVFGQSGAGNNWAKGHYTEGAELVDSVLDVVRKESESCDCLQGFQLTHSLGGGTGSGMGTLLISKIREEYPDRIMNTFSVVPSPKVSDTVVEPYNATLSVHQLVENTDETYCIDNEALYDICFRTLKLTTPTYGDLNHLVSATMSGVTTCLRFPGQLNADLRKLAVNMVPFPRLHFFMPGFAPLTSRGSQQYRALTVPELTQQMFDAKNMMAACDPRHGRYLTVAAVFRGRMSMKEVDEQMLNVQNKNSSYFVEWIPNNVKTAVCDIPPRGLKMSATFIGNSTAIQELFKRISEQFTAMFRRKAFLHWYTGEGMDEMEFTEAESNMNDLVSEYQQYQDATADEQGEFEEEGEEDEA
Chain of Porcine Brain Tubulin (P02550 whole entry): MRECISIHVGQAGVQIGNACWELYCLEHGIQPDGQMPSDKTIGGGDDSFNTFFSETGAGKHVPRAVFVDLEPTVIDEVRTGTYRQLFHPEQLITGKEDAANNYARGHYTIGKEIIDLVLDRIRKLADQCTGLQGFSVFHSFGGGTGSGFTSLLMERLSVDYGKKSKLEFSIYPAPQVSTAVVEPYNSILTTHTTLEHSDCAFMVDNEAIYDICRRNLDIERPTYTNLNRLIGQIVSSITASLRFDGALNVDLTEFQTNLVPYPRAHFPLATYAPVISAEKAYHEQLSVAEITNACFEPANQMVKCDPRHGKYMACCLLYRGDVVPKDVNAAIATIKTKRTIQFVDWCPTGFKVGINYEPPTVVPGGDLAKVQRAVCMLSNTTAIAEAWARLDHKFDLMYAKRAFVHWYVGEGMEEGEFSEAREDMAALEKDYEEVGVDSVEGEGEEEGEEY

On to `Cc1ccc(NC(=O)c2cc(C(F)(F)F)cnn2)cc1-c1ccnc(N2CCOCC2)n1` [Example 29], for which the IC50 is 1000 to 10000 nM in assay [1] (setting [9]); 1000 to 10000 nM in assay [1] (Table 3, read-out: BRAF); 1000 to 10000 nM in assay [2] (setting [10]); 1000 to 10000 nM in assay [2] (Table 3, read-out: CRAF); less than 100 nM in assay [3] (setting [11]); less than 100 nM in assay [3] (setting [12]). For the same compound, the IC50 in assay [4] (setting [13]) was 100 to 500 nM; in assay [4] (setting [14]), 100 to 500 nM; in assay [5] (setting [15]), 100 to 500 nM; in assay [5] (setting [16]) it was 100 to 500 nM; in assay [6] it was 100 to 500 nM; in assay [7] (setting [17]), less than 100 nM.
With `CC(C)(C)c1[nH]cnc1/C=c1\[nH]c(=O)/c(=C/c2ccccc2)[nH]c1=O` [plinabulin, reference compound], the IC50 in assay [8] was 2700 nM; in assay [7] (ratio of pellet to supernatant vs DMSO control, HCT-116, FIG. 2, read-out: IC50 of inhibition of tubulin polymerization, cellular tubulin assay), 5 nM.
For the compound `Cc1ccc(NC(=O)c2cc(C3CCC3)cnn2)cc1-c1cc(N[C@H](C)CO)nc(N2CCOCC2)c1` [Example 48], the IC50 in assay [1] (setting [9]) was less than 100 nM; in assay [1] (Table 3, read-out: BRAF), less than 100 nM; in assay [2] (setting [10]), less than 100 nM; in assay [2] (Table 3, read-out: CRAF), less than 100 nM; in assay [3] (setting [11]) it was less than 100 nM; in assay [3] (setting [12]), less than 100 nM. The IC50 in assay [4] (setting [13]) was less than 100 nM; in assay [4] (setting [14]), less than 100 nM; in assay [5] (setting [15]), 500 to 1000 nM; in assay [5] (setting [16]), 500 to 1000 nM; in assay [6], less than 100 nM; in assay [7] (setting [17]) it was less than 100 nM.
Consider `Cc1ccc(NC(=O)c2cc(C(F)(F)F)cnn2)cc1-c1nc(N[C@H](C)CO)cc(N2CCOCC2)n1` [Example 49], for which the IC50 lay within 1000 to 10000 nM in assay [1] (setting [9]); 1000 to 10000 nM in assay [1] (Table 3, read-out: BRAF); 1000 to 10000 nM in assay [2] (setting [10]); 1000 to 10000 nM in assay [2] (Table 3, read-out: CRAF); 100 to 500 nM in assay [3] (setting [11]); 100 to 500 nM in assay [3] (setting [12]). The IC50 in assay [4] (setting [13]), in assay [4] (setting [14]), in assay [5] (setting [15]), in assay [5] (setting [16]), in assay [6] and in assay [7] (setting [17]) was 100 to 500 nM each time.
Consider `Cc1ccc(NC(=O)c2cc(C(F)(F)F)cnn2)cc1-c1cc(N[C@H](C)CO)nc(N2CCOCC2)c1` [Example 19], for which the IC50 in assay [1] (setting [9]) is less than 100 nM; in assay [1] (Table 3, read-out: BRAF), less than 100 nM; in assay [2] (setting [10]) it was less than 100 nM; in assay [2] (Table 3, read-out: CRAF), less than 100 nM; in assay [3] (setting [11]), less than 100 nM; in assay [3] (setting [12]), less than 100 nM. Also, the IC50 in assay [4] (setting [13]), in assay [4] (setting [14]), in assay [5] (setting [15]), in assay [5] (setting [16]), in assay [6] and in assay [7] (setting [17]) was less than 100 nM each time.
Consider `Cc1ccc(NC(=O)c2cc(C3CC3)cnn2)cc1-c1cc(OCCO)nc(N2CCOCC2)c1` [Example 37], for which the IC50 in assay [1] (setting [9]) is less than 100 nM; in assay [1] (Table 3, read-out: BRAF), less than 100 nM; in assay [2] (setting [10]) it was less than 100 nM; in assay [2] (Table 3, read-out: CRAF), less than 100 nM; in assay [3] (setting [11]), less than 100 nM; in assay [3] (setting [12]), less than 100 nM. Further, the IC50 in assay [4] (setting [13]), in assay [4] (setting [14]), in assay [5] (setting [15]), in assay [5] (setting [16]), in assay [6] and in assay [7] (setting [17]) was less than 100 nM in each case.
In the case of `Cc1ccc(NC(=O)c2cc(C(F)(F)F)cnn2)cc1-c1cncc(N2CCOCC2)c1` [Example 27], the IC50 is 100 to 500 nM in assay [1] (setting [9]); 100 to 500 nM in assay [1] (Table 3, read-out: BRAF); less than 100 nM in assay [2] (setting [10]); less than 100 nM in assay [2] (Table 3, read-out: CRAF); less than 100 nM in assay [3] (setting [11]); less than 100 nM in assay [3] (setting [12]). Further, the IC50 in assay [4] (setting [13]), in assay [4] (setting [14]), in assay [5] (setting [15]), in assay [5] (setting [16]), in assay [6] and in assay [7] (setting [17]) was 100 to 500 nM in each case.
`Cc1ccc(NC(=O)c2cc(C(F)(F)F)cnn2)cc1-c1cc(OCCO)nc(N2CCOCC2)c1` [Example 6]: the IC50 was less than 100 nM in assay [1] (setting [9]); less than 100 nM in assay [1] (Table 3, read-out: BRAF); less than 100 nM in assay [2] (setting [10]); less than 100 nM in assay [2] (Table 3, read-out: CRAF); less than 100 nM in assay [3] (setting [11]); less than 100 nM in assay [3] (setting [12]). Besides, the IC50 in assay [4] (setting [13]), in assay [4] (setting [14]), in assay [5] (setting [15]), in assay [5] (setting [16]), in assay [6] and in assay [7] (setting [17]) was less than 100 nM throughout.
As for `Cc1ccc(NC(=O)c2cc(C(F)(F)F)cnn2)cc1-c1cc(N2CCOCC2)nc(OCCO)n1` [Example 44], the IC50 in assay [1] (setting [9]) was 100 to 500 nM; in assay [1] (Table 3, read-out: BRAF), 100 to 500 nM; in assay [2] (setting [10]), 100 to 500 nM; in assay [2] (Table 3, read-out: CRAF) it was 100 to 500 nM; in assay [3] (setting [11]), less than 100 nM; in assay [3] (setting [12]) it was less than 100 nM. Further, the IC50 in assay [4] (setting [13]) was less than 100 nM; in assay [4] (setting [14]), less than 100 nM; in assay [5] (setting [15]), less than 100 nM; in assay [5] (setting [16]) it was less than 100 nM; in assay [6], less than 100 nM; in assay [7] (setting [17]), 100 to 500 nM.
